According to patent publication US10562898B2, “Substituted benzenesulfonamides as inhibitors of alpha-4 beta-7 integrin activity” (EA PHARMA CO., LTD., priority 2016, dated 2020):

Target: T1, α4β7 integrin (Homo sapiens, UniProt P13612+P26010)
T1 construct: a cell line RPMI-8866, which is known to express α4β7 integrin; endogenous in cells; host or cells: RPMI-8866 (human B cell line)
T1 sequence (P13612 34-1032): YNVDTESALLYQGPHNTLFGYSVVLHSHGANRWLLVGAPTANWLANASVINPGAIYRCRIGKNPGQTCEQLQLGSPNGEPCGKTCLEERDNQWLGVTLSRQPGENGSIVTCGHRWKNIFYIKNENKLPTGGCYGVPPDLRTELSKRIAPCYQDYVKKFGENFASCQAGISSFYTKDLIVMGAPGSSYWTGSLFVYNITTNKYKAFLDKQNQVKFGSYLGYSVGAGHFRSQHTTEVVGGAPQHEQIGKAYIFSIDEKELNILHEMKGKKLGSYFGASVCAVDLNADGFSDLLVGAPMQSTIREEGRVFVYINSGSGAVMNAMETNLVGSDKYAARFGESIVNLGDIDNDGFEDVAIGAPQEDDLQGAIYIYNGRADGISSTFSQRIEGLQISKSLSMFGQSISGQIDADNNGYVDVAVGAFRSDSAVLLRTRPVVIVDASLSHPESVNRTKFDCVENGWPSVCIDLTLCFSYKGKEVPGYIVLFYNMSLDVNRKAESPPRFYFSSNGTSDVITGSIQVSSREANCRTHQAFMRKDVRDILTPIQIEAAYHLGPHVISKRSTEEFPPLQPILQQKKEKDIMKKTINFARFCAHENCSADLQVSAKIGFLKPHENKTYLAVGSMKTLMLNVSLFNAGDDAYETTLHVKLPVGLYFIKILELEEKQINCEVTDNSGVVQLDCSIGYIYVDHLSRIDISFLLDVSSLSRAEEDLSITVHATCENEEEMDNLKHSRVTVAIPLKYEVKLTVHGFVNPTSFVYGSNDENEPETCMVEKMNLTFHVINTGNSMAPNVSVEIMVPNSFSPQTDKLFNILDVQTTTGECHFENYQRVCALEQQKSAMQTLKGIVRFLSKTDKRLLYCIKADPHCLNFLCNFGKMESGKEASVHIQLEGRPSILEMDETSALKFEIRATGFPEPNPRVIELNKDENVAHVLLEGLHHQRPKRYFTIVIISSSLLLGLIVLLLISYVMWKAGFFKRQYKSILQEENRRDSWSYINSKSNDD
T1 sequence (P26010 20-798): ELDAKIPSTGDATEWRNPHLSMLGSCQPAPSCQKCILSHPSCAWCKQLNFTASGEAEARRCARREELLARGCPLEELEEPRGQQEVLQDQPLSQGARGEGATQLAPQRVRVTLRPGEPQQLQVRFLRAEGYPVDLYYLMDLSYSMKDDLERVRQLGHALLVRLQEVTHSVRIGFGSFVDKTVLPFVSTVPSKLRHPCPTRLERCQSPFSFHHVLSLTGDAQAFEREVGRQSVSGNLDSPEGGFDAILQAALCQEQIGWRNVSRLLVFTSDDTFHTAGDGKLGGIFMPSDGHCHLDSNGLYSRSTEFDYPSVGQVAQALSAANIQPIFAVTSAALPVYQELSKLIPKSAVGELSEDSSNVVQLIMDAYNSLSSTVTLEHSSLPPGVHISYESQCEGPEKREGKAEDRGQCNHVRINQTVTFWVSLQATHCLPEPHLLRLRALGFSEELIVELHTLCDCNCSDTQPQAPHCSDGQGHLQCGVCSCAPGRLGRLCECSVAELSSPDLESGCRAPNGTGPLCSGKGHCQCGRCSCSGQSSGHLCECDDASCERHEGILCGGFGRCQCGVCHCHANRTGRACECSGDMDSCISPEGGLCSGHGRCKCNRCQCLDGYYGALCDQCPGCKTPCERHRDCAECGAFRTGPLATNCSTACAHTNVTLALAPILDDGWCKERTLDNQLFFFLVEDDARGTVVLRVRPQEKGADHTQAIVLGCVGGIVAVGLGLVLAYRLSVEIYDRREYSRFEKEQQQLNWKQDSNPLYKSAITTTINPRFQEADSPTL
Experiment: MAdCAM-1/α4β7 integrin binding inhibitory activity evaluation test in presence of serum
Format: cell-based
Conditions: RPMI-8866 cells, recombinant mouse MAdCAM-1/Fc, 50% human serum; read-out: α4β7 Serum Added IC50
Description: (3) MAdCAM-1/α4β7 Integrin Binding Inhibitory Activity Evaluation Test in Presence of Serum (1)
Each test substance was measured in terms of an ability to inhibit the MAdCAM-1 binding of a human B cell line, namely, a cell line RPMI-8866, which is known to express α4β7 integrin.
A solution of recombinant mouse MAdCAM-1/Fc (R&D Systems, Inc.) (1 μg/mL) diluted with a buffer A (carbonate buffer, pH 9.6) was added in an amount of 50 μL/well to a 96-well microtiter plate, followed by incubation at 4° C. overnight. After the plate was washed with PBS once, 150 μL/well of Block Ace (Snow Brand Milk Products Co., Ltd.) was added, followed by incubation at room temperature for 2 hours. After removal, the plate was washed with PBS once.
Then, 100 μL of the RPMI-8866 cells (2×10^6 cells/mL) and 100 of the test substance at each of various concentrations diluted with a binding buffer (DMEM containing 40 mM HEPES, 0.2% BSA, and 4 mM MnCl2) were added to the plate coated with the MAdCAM-1/Fc (5×10^5 cells/well) such that 50% human serum was contained at the final concentration. Then, incubation was allowed to proceed at 30° C. for 15 to 60 minutes. After the cells were bound to the wells, the plate was washed with PBS to remove unbound cells. A buffer C (PBS containing 1.5% Triton X-100) was added in an amount 50 μL/well to the plate to lyse the bound RPMI-8866 cells. After 30 μL of a substrate buffer (Promega, CytoTox 96 Non-Radioactive Cytotoxicity Assay) was added to 30 μL of the cell lysate, a reaction was allowed to proceed at room temperature in the dark for 30 minutes. After 30 μL of a stop solution (Promega, CytoTox 96 Non-Radioactive Cytotoxicity Assay) was added to each, and then an absorbance at 490 nm was measured using a plate reader. The absorbance obtained here represents a detection result of an activity of lactate dehydrogenase (LDH) eluted in the supernatant of each well, that is, the absorbance is proportional to the number of RPMI-8866 cells bound to the MAdCAM-1 and thus remaining on the plate. The test was performed in duplicate. Provided that the absorbance of the well containing no test substance was 100%, a cell binding rate with the test substance at each of the various concentrations was figured out, and a concentration IC50 which brought about 50% binding inhibition was calculated.

Compound	IC50 [nM]
Cc1cn(C)c(=O)n(-c2ccc(C[C@H](NC(=O)c3cc(F)c(NS(=O)(=O)c4ccc(NC(=O)C(C)C)cc4)cc3F)C(=O)O)cn2)c1=O [Compound A71]	43
Cn1ccc(=O)n(-c2ccc(C[C@H](NC(=O)c3cc(F)c(NS(=O)(=O)c4ccc(NC(=O)C(C)(C)CO)cc4)cc3F)C(=O)O)cn2)c1=O [Compound A62]	22
Cc1cn(C)c(=O)n(-c2ccc(C[C@H](NC(=O)c3cc(F)c(NS(=O)(=O)c4ccc(NC(=O)C(C)(C)CO)cc4)cc3F)C(=O)O)cn2)c1=O [Compound A63]	12
Cn1c(=O)n(-c2ccc(C[C@H](NC(=O)c3cc(F)c(NS(=O)(=O)c4ccc(NC(=O)C5(C(F)(F)F)CC5)cc4)cc3F)C(=O)O)cc2)c(=O)c2ccncc21 [Compound A24]	15
Cn1c(=O)n(-c2ccc(C[C@H](NC(=O)c3cc(F)c(NS(=O)(=O)c4ccc(NC(=O)C(C)(C)CO)cc4)cc3F)C(=O)O)cc2)c(=O)c2ccncc21 [Compound A18]	9
Cc1c(C)n(C)c(=O)n(-c2ccc(C[C@H](NC(=O)c3cc(F)c(NS(=O)(=O)c4ccc(NC(=O)C(C)(C)C)cn4)cc3F)C(=O)O)cn2)c1=O [Compound A32]	3
Cn1c2c(c(=O)n(-c3ccc(C[C@H](NC(=O)c4cc(F)c(NS(=O)(=O)c5ccc(NC(=O)C(C)(C)C)cc5)cc4F)C(=O)O)nc3)c1=O)CCCC2 [Compound A47]	15
Cc1cn(C)c(=O)n(-c2ccc(C[C@H](NC(=O)c3cc(F)c(NS(=O)(=O)c4ccc(NC(=O)C(C)(C)C)cc4)cc3F)C(=O)O)cc2)c1=O [Compound A37]	6.6
Cn1ccc(=O)n(-c2ccc(C[C@H](NC(=O)c3cc(F)c(NS(=O)(=O)c4ccc(NC(=O)C(C)(C)C)cc4)cc3F)C(=O)O)cn2)c1=O [Compound A53]	11
Cn1c(=O)n(-c2ccc(C[C@H](NC(=O)c3cc(F)c(NS(=O)(=O)c4ccc(NC(=O)C(C)(C)C)c(F)c4)cc3F)C(=O)O)cc2)c(=O)c2ccncc21 [Compound A12]	61
Cc1c(C)n(C)c(=O)n(-c2ccc(C[C@H](NC(=O)c3cc(F)c(NS(=O)(=O)c4cccc(NC(=O)C(C)(C)C)c4)cc3F)C(=O)O)cc2)c1=O [Compound A49]	45
Cc1cn(C)c(=O)n(-c2ccc(C[C@H](NC(=O)c3cc(F)c(NS(=O)(=O)c4ccc(NC(=O)C#CC(C)(C)C)cc4)cc3F)C(=O)O)cn2)c1=O [Compound A68]	33

The remaining lines, values ahead:

IC50 [nM]	Compound
33	Cn1ccc(=O)n(-c2ccc(C[C@H](NC(=O)c3cc(F)c(NS(=O)(=O)c4ccc(NC(=O)C(C)(C)C)cc4)cc3F)C(=O)O)nc2)c1=O [Compound A70]
38	Cc1c(C)n(C)c(=O)n(-c2ccc(C[C@H](NC(=O)c3cc(F)c(NS(=O)(=O)c4cc(NC(=O)C(C)(C)C)cs4)cc3F)C(=O)O)cc2)c1=O [Compound A11]
4.4	Cc1c(C)n(C)c(=O)n(-c2ccc(C[C@H](NC(=O)c3cc(F)c(NS(=O)(=O)c4ccc(NC(=O)C(C)(C)C)cc4)cc3F)C(=O)O)cn2)c1=O [Compound A28]
2.6	Cn1c2c(c(=O)n(-c3ccc(C[C@H](NC(=O)c4cc(F)c(NS(=O)(=O)c5ccc(NC(=O)C(C)(C)C)cc5)cc4F)C(=O)O)cn3)c1=O)COCC2 [Compound A44]
7.2	Cc1c(C)n(C)c(=O)n(-c2ccc(C[C@H](NC(=O)c3cc(F)c(NS(=O)(=O)c4ccc(NC(=O)C(C)(C)CO)cc4)cc3F)C(=O)O)cc2)c1=O [Compound A21]
10	CCC(CC)C(=O)Nc1ccc(S(=O)(=O)Nc2cc(F)c(C(=O)N[C@@H](Cc3ccc(-n4c(=O)c5ccncc5n(C)c4=O)cc3)C(=O)O)cc2F)cc1 [Compound A3]
14	Cn1c(=O)n(-c2ccc(C[C@H](NC(=O)c3cc(F)c(NS(=O)(=O)c4ccc(NC(=O)C5CCNCC5)cc4)cc3F)C(=O)O)cc2)c(=O)c2ccncc21 [Compound A6, (2S)-2-[[2,5-difluoro-4-[[4-(piperidine-4-carbonylamino)phenyl]sulfonylamino]benzoyl]amino]-3-[4-(1-methyl-2,4-dioxo-pyrido[3,4-d]pyrimidin-3-yl)phenyl]propanoic acid]
